The source of these data is publication PMC8149352 (Cancer Chemotherapy and Pharmacology, 2021).

One data set relates to P-glycoprotein. The arrangement: method as in PMID 32652442. Conditions: cited from earlier work.
Details of data set [1]: method as in PMID 27745744. Conditions: cited from earlier work.
The nature of data set [2]: Part A safety: adverse events (NCI CTCAE v5.0), safety population. The class given is in vivo, human (patients with advanced solid tumors). Conditions: Part A (N = 12); by treatment period. As for the experimental part:
This was an open-label, parallel-group, phase 1 study consisting of a 2-part core phase and an extension phase. Only results for the core phases are reported herein (Supplementary Fig. 1). […] Blood samples for PK analysis were obtained on days 1 and 10 at predose, and at 0.5, 1, 2, 4, 6, 9, 12, 24, and 48 h postdose. Pamiparib plasma concentrations were determined using a validated liquid chromatography–mass spectrometry/mass spectrometry method (lower limit of quantification 1.0 ng/mL) at Covance Laboratory Services (Salt Lake City, Utah).
(§1) Adverse events (AEs) were monitored throughout the study and were graded according to the National Cancer Institute Common Terminology Criteria v5.0.
(§2) The safety population included all patients who received at least one dose of pamiparib. […] Plasma PK parameters were calculated from pamiparib concentration–time profiles using standard noncompartmental methods. PK parameters were calculated using Phoenix WinNonlin v6.4 or higher (Certara, Princeton, NJ, USA). […] Data for each treatment part were analyzed separately. Log-transformed AUC and Cmax values were analyzed using a linear mixed-effect model analysis assuming a fixed effect for treatment and a random effect for patients. The study design called for ~ 24 patients (12 in each part) to be enrolled to ensure at least 20 (10 in each part) completed the study. This sample size was based on the precedent set by other PK studies of a similar nature and was not based on power calculations.

Another data set relates to CYP2C8. The arrangement: method as in PMID 21838784. Conditions: cited from earlier work.
Data set [3] in a line: Part B safety: adverse events (NCI CTCAE v5.0), safety population. The class given is in vivo, human (patients with solid tumors). Conditions: by treatment period. As for the experimental part: Part B of the core phase assessed the effect of the strong CYP3A inhibitor itraconazole on the PK of pamiparib in patients with solid tumors. All patients received a single dose of oral pamiparib 20 mg on days 1 and 7, and oral itraconazole 200 mg QD on days 3–8. The 20-mg pamiparib dose, the lowest dose strength available and one-sixth of the highest phase 1 dose (120 mg), was deemed sufficient to cover the plasma exposure increase due to complete blockade of CYP3A by itraconazole. Part B patients fasted for at least 8 h before and at least 4 h after pamiparib administration, except for day 7 upon which itraconazole administration occurred ~ 30 min after completing a meal and pamiparib administration followed within 5 min of itraconazole administration. Blood samples for PK analysis were obtained on days 1 and 7 at the same time points listed above for Part A. After completing the core phase in Part A and Part B, patients were offered participation in the extension phase, in which they were to receive pamiparib PO BID in 28-day cycles until disease progression, unacceptable toxicity, withdrawal of consent, or any other reason for discontinuation.
as §1, §2

A further data set concerns CYP3A rather than CYP2C8. The arrangement: method as in PMID 11136296. Conditions: cited from earlier work.
Setting [4] is: olaparib with itraconazole administration.
Setting [5] is: Part B (N = 13; N = 12 for pamiparib with itraconazole).

With `C[C@]1(c2nc3c(C(N)=O)cccc3[nH]2)CCCN1` [veliparib], in the data set with P-glycoprotein, the P-glycoprotein substrate status entry is given as “substrate of P-glycoprotein”.
As to `Cn1ncnc1[C@H]1c2n[nH]c(=O)c3cc(F)cc(c23)N[C@@H]1c1ccc(F)cc1` [talazoparib], in the data set with P-glycoprotein, the P-glycoprotein substrate status entry is “substrate of P-glycoprotein”.
As to `O=C(c1cc(Cc2n[nH]c(=O)c3ccccc23)ccc1F)N1CCN(C(=O)C2CC2)CC1` [olaparib], the P-glycoprotein substrate status result in the data set on P-glycoprotein was “substrate of P-glycoprotein”. In data set [1] (setting [4]), the “AUC treatment ratio with itraconazole” value is recorded as 2.70 and the “Cmax treatment ratio with itraconazole” value is 1.42. Also, in data set [1] (olaparib with itraconazole, one patient), the “AUC increase with itraconazole observed in one patient” value is on record as “sevenfold”.
With `CNCc1ccc(-c2[nH]c3cc(F)cc4c3c2CCNC4=O)cc1` [rucaparib], the P-glycoprotein substrate status result in the data set with P-glycoprotein is recorded as “substrate of P-glycoprotein”.
`CO[C@H]1/C=C/O[C@@]2(C)Oc3c(C)c(O)c4c(O)c(c(/C=N/N5CCN(C)CC5)c(O)c4c3C2=O)NC(=O)/C(C)=C\C=C\[C@H](C)[C@H](O)[C@@H](C)[C@@H](O)[C@@H](C)[C@H](OC(C)=O)[C@@H]1C` [Rifampin, rifampin, reference compound]: in data set [2], the “Any treatment-related TEAE, patients” value is 1 (8.3) n (%); the “Grade >= 3 TEAE, patients” value is recorded as 0 n (%); the “Serious AE, patients” value is reported as 0 n (%); the “Treatment-related TEAE related to both, patients” value is on record as 0 n (%). For the same molecule, in data set [2], the “Treatment-related TEAE related to pamiparib only, patients” value was 0 n (%) and the “Treatment-related TEAE related to rifampin only, patients” value is recorded as 1 (8.3) n (%).
Turning to `CC(C)(O)c1ccccc1CC[C@@H](SCC1(CC(=O)O)CC1)c1cccc(/C=C/c2ccc3ccc(Cl)cc3n2)c1` [montelukast], in the data set with CYP2C8, the “effect of CYP2C8 inhibitor gemfibrozil on montelukast AUC” value was “markedly increased” and the “effect of itraconazole coadministration on montelukast PK” value was “no significant effects”.
With `CCC(C)n1ncn(-c2ccc(N3CCN(c4ccc(OCC5COC(Cn6cncn6)(c6ccc(Cl)cc6Cl)O5)cc4)CC3)cc2)c1=O` (centres unmarked) [Itraconazole, itraconazole, reference compound], in data set [3] (setting [5]), the “All TEAEs (any grade), patients” value was 2 (15.4) n (%); the “Any treatment-related TEAE, patients” value is given as 1 (7.7) n (%); the “Grade >= 3 TEAE, patients” value is 1 (7.7) n (%); the “Serious AE, patients” value is on record as 1 (7.7) n (%). Further, in data set [3] (setting [5]), the “Treatment-related TEAE related to itraconazole only, patients” value is listed as 0 n (%) and the “Treatment-related TEAE related to pamiparib only, patients” value is listed as 0 n (%). In data set [3] (Part B), the “Serious AE related to both, patients” value is on record as 0 n (%); the “Serious AE related to itraconazole only, patients” value is recorded as 0 n (%); the “Serious AE related to pamiparib only, patients” value is on record as 0 n (%). Also, the “in vivo CYP2C8 inhibition” value with CYP2C8 (inferred from montelukast clinical study) is “negligible”. For the same molecule, the “specificity of inhibition for CYP3A rather than CYP2C8” value with CYP3A rather than CYP2C8 is reported as ~ 100 fold.
